# Biological target: T1, hFXR (Homo sapiens, UniProt Q96RI1)
# T1 construct: expressed in transfected cells; host or cells: CV-1 cells
# T1 sequence (Q96RI1 1-486): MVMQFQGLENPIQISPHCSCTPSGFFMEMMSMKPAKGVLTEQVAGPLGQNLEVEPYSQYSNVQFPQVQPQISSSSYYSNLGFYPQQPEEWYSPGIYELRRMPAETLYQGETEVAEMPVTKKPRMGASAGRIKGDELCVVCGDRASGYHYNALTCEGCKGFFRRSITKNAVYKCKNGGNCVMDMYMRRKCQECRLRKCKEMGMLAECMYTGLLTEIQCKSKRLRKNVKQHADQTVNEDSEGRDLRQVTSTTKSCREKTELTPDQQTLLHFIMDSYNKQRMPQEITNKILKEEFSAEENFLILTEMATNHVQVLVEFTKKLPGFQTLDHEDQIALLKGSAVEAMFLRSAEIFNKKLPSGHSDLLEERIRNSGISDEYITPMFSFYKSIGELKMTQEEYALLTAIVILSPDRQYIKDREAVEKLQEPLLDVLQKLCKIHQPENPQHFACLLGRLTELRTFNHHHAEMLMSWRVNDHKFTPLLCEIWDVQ
# T1 sequence (P19793 1-462 partner): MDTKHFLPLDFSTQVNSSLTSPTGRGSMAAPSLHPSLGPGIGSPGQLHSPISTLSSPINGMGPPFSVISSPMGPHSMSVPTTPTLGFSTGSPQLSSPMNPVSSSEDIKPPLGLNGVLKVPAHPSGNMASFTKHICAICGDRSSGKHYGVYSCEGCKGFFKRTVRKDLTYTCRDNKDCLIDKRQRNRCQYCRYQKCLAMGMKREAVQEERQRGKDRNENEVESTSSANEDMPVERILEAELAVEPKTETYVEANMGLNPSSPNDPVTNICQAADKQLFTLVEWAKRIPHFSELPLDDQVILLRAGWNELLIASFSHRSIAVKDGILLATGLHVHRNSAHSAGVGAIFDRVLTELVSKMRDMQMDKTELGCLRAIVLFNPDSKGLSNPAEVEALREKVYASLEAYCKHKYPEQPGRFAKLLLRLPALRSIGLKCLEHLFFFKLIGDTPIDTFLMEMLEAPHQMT
# Test: In Vitro FXR Assay (TK): TK-ECRE-luc reporter in transfected CV-1 cells
# Format: cell-based
# Conditions: CV-1 cells transfected with hFXR, hRXR, pCMX-YFP, 18 hrs incubation, luminescence
# Procedure, shortened: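 CV-1 cells in DMEM with 10% charcoal-stripped FBS were transiently co-transfected with hFXR, hRXR, TK-ECRE-luc reporter and pCMX-YFP plasmids over 18 h at 37 °C. Compounds serially diluted in DMSO were added for 18 h; cells were then lysed and luciferase luminescence measured.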
compound,measurement,value
"COc1ccc(C23CCC(CN(c4cc(-c5coc(C(C)(C)C)n5)ccn4)C(=O)[C@H]4CC[C@H](OC(=O)NCCCO)CC4)(CC2)CC3)cc1C [Compound 2, 4-((4-(2-(tert-Butyl)oxazol-4-yl)pyridin-2-yl)((4-(4-methoxy-3-methylphenyl)bicyclo[2.2.2]octan-1-yl)methyl)carbamoyl) (trans-cyclohexyl) (3-hydroxypropyl)carbamate]",EC50,≤ 10 nM
"COc1ccc(C23CCC(CN(c4cc(-c5cnn(C(C)(C)C)c5)ncn4)C(=O)[C@H]4CC[C@H](OC(=O)N5CC(O)C5)CC4)(CC2)CC3)cc1C [Compound 2.36, 4-((6-(1-(tert-Butyl)-1H-pyrazol-4-yl)pyrimidin-4-yl)((4-(4-methoxy-3-methylphenyl)bicyclo[2.2.2]octan-1-yl)methyl)carbamoyl) (trans-cyclohexyl) 3-hydroxyazetidine-1-carboxylate]",EC50,10 to 1000 nM
"CCC(CC)(CC)n1cc(-c2ccnc(N(CC34CCC(c5ccc(OC)c(C)c5)(CC3)CC4)C(=O)[C@H]3CC[C@H](OC(=O)N4CC(O)C4)CC3)c2)cn1 [Compound 4.08, 4-((4-(1-(3-Ethylpentan-3-yl)-1H-pyrazol-4-yl)pyridin-2-yl)((4-(4-methoxy-3-methylphenyl)bicyclo[2.2.2]octan-1-yl)methyl)carbamoyl) cyclohexyl trans-3-hydroxyazetidine-1-carboxylate]",EC50,10 to 1000 nM
"COc1ccc(C23CCC(CN(c4cc(-c5cnn(C(C)(C)C)c5)ccn4)C(=O)[C@H]4CC[C@H](OC(=O)NCCO)CC4)(CC2)CC3)cc1C [Compound 2.30, 4-((4-(1-(tert-Butyl)-1H-pyrazol-4-yl)pyridin-2-yl)((4-(4-methoxy-3-methylphenyl)bicyclo[2.2.2]octan-1-yl)methyl)carbamoyl)cyclohexyl (2-hydroxyethyl)trans-carbamate]",EC50,≤ 10 nM
"COc1ccc([C@H]2CC[C@H](CN(c3cc(-c4cnc(C(C)(C)C)s4)ccn3)C(=O)[C@H]3CC[C@H](OC(=O)N4CC(O)C4(C)C)CC3)CC2)cc1C (stereo partly drawn) [Compound 1.02, trans-4-((4-(2-(tert-Butyl)thiazol-5-yl)pyridin-2-yl)(((trans)-4-(4-methoxy-3-methylphenyl)cyclohexyl)methyl)carbamoyl) cyclohexyl 3-hydroxy-2,2-dimethylazetidine-1-carboxylate]",EC50,10 to 1000 nM
"COc1ccc(C23CCC(CN(c4cc(-c5coc(C(C)(C)C)n5)ccn4)C(=O)[C@H]4CC[C@H](OC(=O)N5CCC(N(C)C)C5)CC4)(CC2)CC3)cc1C (stereo partly drawn) [Compound 2.16, 4-((4-(2-(tert-Butyl)oxazol-4-yl)pyridin-2-yl)((4-(4-methoxy-3-methylphenyl)bicyclo[2.2.2]octan-1-yl)methyl)carbamoyl)cyclohexyl 3-(dimethylamino)pyrrolidine- trans-1-carboxylate]",EC50,10 to 1000 nM
"COc1ccc(C23CCC(CN(c4cc(-c5cnc(C(C)(C)C)s5)ccn4)C(=O)[C@H]4CC[C@H](OC(=O)NC5COC5)CC4)(CC2)CC3)cc1C [Compound 2.04, 4-((4-(2-(tert-Butyl)thiazol-5-yl)pyridin-2-yl)((4-(4-methoxy-3-methylphenyl)bicyclo[2.2.2]octan-1-yl)methyl)carbamoyl) (trans-cyclohexyl) oxetan-3-ylcarbamate]",EC50,≤ 10 nM
"COc1ccc(C23CCC(CN(c4cc(-c5cnc(C(C)(C)C)s5)ccn4)C(=O)[C@H]4CC[C@H](OC(=O)NCCC(C)(C)O)CC4)(CC2)CC3)cc1C [Compound 2.08, 4-((4-(2-(tert-Butyl)thiazol-5-yl)pyridin-2-yl)((4-(4-methoxy-3-methylphenyl)bicyclo[2.2.2]octan-1-yl)methyl)carbamoyl) (trans-cyclohexyl) (3-hydroxy-3-methylbutyl)carbamate]",EC50,≤ 10 nM
"COc1ccc(C23CCC(CN(c4cc(-c5cnn(C(C)(C)C)c5)ccn4)C(=O)[C@H]4CC[C@H](OC(=O)NC5CC[S+]([O-])CC5)CC4)(CC2)CC3)cc1C (stereo partly shown) [Compound 2.38, (1r,4r)-4-((4-(1-(tert-Butyl)-1H-pyrazol-4-yl)pyridin-2-yl)((4-(4-methoxy-3-methylphenyl)bicyclo[2.2.2]octan-1-yl)methyl)carbamoyl)cyclohexyl (1-oxidotetrahydro-2H-thiopyran-4-yl)carbamate]",EC50,10 to 1000 nM
"COc1c(C)cc(C23CCC(CN(c4cc(-c5cnn(C(C)(C)C)c5)ccn4)C(=O)[C@H]4CC[C@H](OC(=O)N5CC(O)C5)CC4)(CC2)CC3)cc1C [Compound 3.04, 4-((4-(1-(tert-Butyl)-1H-pyrazol-4-yl)pyridin-2-yl)((4-(4-methoxy-3,5-dimethylphenyl)bicyclo[2.2.2]octan-1-yl)methyl)carbamoyl) (trans-cyclohexyl) 3-hydroxyazetidine-1-carboxylate]",EC50,≤ 10 nM
"COc1ccc(C23CCC(CN(c4cc(-c5cnn(C(C)(C)C)c5)c(F)cn4)C(=O)[C@H]4CC[C@H](OC(=O)N5CC(O)C5)CC4)(CC2)CC3)cc1C [Compound 1.12, 4-((4-(1-(tert-Butyl)-1H-pyrazol-4-yl)-5-fluoropyridin-2-yl)((4-(4-methoxy-3-methylphenyl)bicyclo[2.2.2]octan-1-yl)methyl)carbamoyl) (trans-cyclohexyl) 3-hydroxyazetidine-1-carboxylate]",EC50,≤ 10 nM
"COc1ccc(C23CCC(CN(c4cc(-c5cnn(C(C)(C)C)c5)ccn4)C(=O)[C@H]4CC[C@H](OC(=O)NCCC(C)(C)O)CC4)(CC2)CC3)cc1C [Compound 2.32, 4-((4-(1-(tert-Butyl)-1H-pyrazol-4-yl)pyridin-2-yl)((4-(4-methoxy-3-methylphenyl)bicyclo[2.2.2]octan-1-yl)methyl)carbamoyl) (trans-cyclohexyl) (3-hvdroxy-3-methylbutyl)carbamate]",EC50,≤ 10 nM
"COc1ccc(C23CCC(CN(c4cc(-n5cnc(C(C)(C)C)c5)ccn4)C(=O)[C@H]4CC[C@H](OC(=O)N5CC(O)C5)CC4)(CC2)CC3)cc1C [Compound 4.11, 4-((4-(4-(tert-Butyl)-1H-imidazol-1-yl)pyridin-2-yl)((4-(4-methoxy-3-methylphenyl)bicyclo[2.2.2]octan-1-yl)methyl)carbamoyl) cyclohexyl trans-3-hydroxyazetidine-1-carboxylate]",EC50,10 to 1000 nM
"COc1ccc(C23CCC(CN(c4nccc(-c5cnn(C(C)(C)C)c5)n4)C(=O)[C@H]4CC[C@H](OC(=O)N5CC(O)C5)CC4)(CC2)CC3)cc1C [Compound 3.14, 4-((4-(1-(tert-Butyl)-1H-pyrazol-4-yl)pyrimidin-2-yl)((4-(4-methoxy-3-methylphenyl)bicyclo[2.2.2]octan-1-yl)methyl)carbamoyl) (trans-cyclohexyl) 3-hydroxyazetidine-1-carboxylate]",EC50,10 to 1000 nM
"COc1ccc(C23CCC(CN(c4cc(-c5cnn(C(C)(C)C)c5)ccn4)C(=O)[C@H]4CC[C@H](OC(=O)N5CCC(O)CC5)CC4)(CC2)CC3)cc1C [Compound 2.27, 4-((4-(1-(tert-Butyl)-1H-pyrazol-4-yl)pyridin-2-yl)((4-(4-methoxy-3-methylphenyl)bicyclo[2.2.2]octan-1-yl)methyl)carbamoyl)cyclohexyl 4-hydroxypiperidine-trans-1-carboxylate]",EC50,≤ 10 nM
"COc1ccc(C23CCC(CN(c4cc(-c5coc(C(C)(C)C)n5)ccn4)C(=O)[C@H]4CC[C@H](OC(=O)NC5COC5)CC4)(CC2)CC3)cc1C [Compound 2.18, 4-((4-(2-(tert-Butyl)oxazol-4-yl)pyridin-2-yl)((4-(4-methoxy-3-methylphenyl)bicyclo[2.2.2]octan-1-yl)methyl)carbamoyl) (trans-cyclohexyl) oxetan-3-ylcarbamate]",EC50,10 to 1000 nM

# Reference: patent US11773094B2, “Farnesoid X receptor agonists and uses thereof” (Metacrine, Inc., priority 2018, dated 2023)
